Measured values from patent publication US8987276B2, “Substituted triazolyl piperazine and triazolyl piperidine derivatives as gamma secretase modulators” (Janssen Pharmaceuticals, Inc., priority 2011, dated 2015).
Structures can show the parent of a compound that is named as a salt.

Columns and labels:
[1] = tested on: Aβ42; assay: Screening for γ-secretase-modulating activity: Aβ42 in supernatant of SKNBE2 cells carrying APP 695-wild type (Alphalisa); format: cell-based; settings: Homo sapiens, overnight incubation, cell supernatant
Experimental: (§1) Screening was carried out using SKNBE2 cells carrying the APP 695-wild type, grown in Dulbecco's Modified Eagle's Medium/Nutrient mixture F-12 (DMEM/NUT-mix F-12) (HAM) provided by Invitrogen (cat no. 10371-029) containing 5% Serum/Fe supplemented with 1% non-essential amino acids, 1-glutamine 2 mM, Hepes 15 mM, penicillin 50 U/ml (units/ml) en streptomycin 50 µg/ml. Cells were grown to near confluency.
(§2) The screening was performed using a modification of the assay as described in Citron et al (1997) Nature Medicine 3: 67. Briefly, cells were plated in a 384-well plate at 10^4 cells/well in Ultraculture (Lonza, BE12-725F) supplemented with 1% glutamine (Invitrogen, 25030-024), 1% non-essential amino acid (NEAA), penicillin 50 U/ml en streptomycin […] in the presence of test compound at different test concentrations. The cell/compound mixture was incubated overnight at 37° C., 5% CO2. The next day the media were assayed by two sandwich immuno-assays, for Aβ42 and Aβtotal.
(§3) Aβtotal and Aβ42 concentrations were quantified in the cell supernatant using the Aphalisa technology (Perkin Elmer). Alphalisa is a sandwich assay using biotinylated antibody attached to streptavidin coated donorbeads and antibody conjugated to acceptor beads. In the presence of antigen, the beads come into close proximity. The excitation of the donor beads provokes the release of singlet oxygen molecules that trigger a cascade of energy transfer in the acceptor beads, resulting in light emission.
(§4) To quantify the amount of Aβ42 in the cell supernatant, monoclonal antibody specific to the C-terminus of Aβ42 (JRF/cAB42/26) was coupled to the receptor beads and biotinylated antibody specific to the N-terminus of Aβ (JRF/ABN/25) was used to react with the donor beads. T quantify the amount of Aβtotal in the cell supernatant, monoclonal antibody specifc to the N-terminus of Aβ (JRF/AβN/25) was coupled to the receptor beads and biotinylated antibody specific to the mid region of Aβ (biotinylated 4G8) was used to react with the donor beads.
(§5) To obtain the values reported in Table 3, the data are calculated as percentage of the maximum amount of amyloid Beta 42 measured in the absence of the test compound. The sigmoidal dose response curves were analyzed using non-linear regression analysis with percentage of the control plotted against the log concentration of the compound. A 4-parameter equation was used to determine the IC50.

[2] = tested on: Aβtotal; assay: Screening for γ-secretase-modulating activity: Aβtotal in supernatant of SKNBE2 cells carrying APP 695-wild type (Alphalisa); format: cell-based; settings: Homo sapiens, overnight incubation, cell supernatant
Experimental: as §1, §2, §3, §4, §5

[3] = tested on: Aβ42; assay: In vivo efficacy: brain soluble Aβ42 lowering in non-transgenic animals (ELISA); parameters: species or system mouse; settings: dose 30 mg/kg oral dosing; brain soluble fraction, 4 h after dose; untreated animals (Ctrl) set at 100
Source text: (§6) To determine whether acute administration of an Aβ42 lowering agent would reduce Aβ42 levels in vivo, non-transgenic rodents, e.g. mice or rats were used. Animals treated with the Aβ42 lowering agent were examined and compared to those untreated or treated with vehicle and brain levels of soluble Aβ42 and total Aβ were quantitated by standard techniques, for example, using ELISA. Treatment periods varied from hours (h) to days and were adjusted based on the results of the Aβ42 lowering once a time course of onset of effect could be established.
(§7) A typical protocol for measuring Aβ42 lowering in vivo is shown but it is only one of many variations that could be used to optimize the levels of detectable A3. For example, Aβ42 lowering compounds were formulated in 20% of Captisol® (a sulfobutyl ether of β-cyclodextrin) in water or 20% hydroxypropyl 0 cyclodextrin. The Aβ42 lowering agents were administered as a single oral dose or by any acceptable route of administration to overnight fasted animals. After 4 h, the animals were sacrificed and Aβ42 levels were analysed.
(§8) Blood was collected by decapitation and exsanguinations in EDTA-treated collection tubes. […] The left hemisphere was stored at −18° C. for quantitative analysis of test compound levels. […]
(§9) Mouse brains from non-transgenic animals were resuspended in 8 volumes of 0.4% DEA (diethylamine)/50 mM NaCl containing protease inhibitors (Roche-11873580001 or 04693159001) per gram of tissue, e.g. for 0.158 g brain, add 1.264 ml of 0.4% DEA. […] Nine parts of supernatant were neutralized with 1 part 0.5 M Tris-HCl pH 6.8 and used to quantify Aβtotal and Aβ42.
(§10) To quantify the amount of Aβtotal and Aβ42 in the soluble fraction of the brain homogenates, Enzyme-Linked-Immunosorbent-Assays were used. […] Following this incubation and subsequent wash steps the ELISA for Aβ42 quantification was finished by addition of Quanta Blu fluorogenic peroxidase substrate according to the manufacturer's instructions (Pierce Corp., Rockford, Il). A reading was performed after 10 to 15 min (excitation 320 nm/emission 420 nm). […]

[4] = tested on: Aβtotal; assay: In vivo efficacy: brain soluble Aβtotal in non-transgenic animals (ELISA); parameters: species or system mouse; settings: dose 30 mg/kg oral dosing; brain soluble fraction, 4 h after dose; untreated animals (Ctrl) set at 100
Source text: as §6, §7, §8, §9, §10

SMILES	IC50 [1] [nM]	IC50 [2] [nM]	melting point [°C]	Aβ42 (% vs Ctrl)_Mean [3] [% vs Ctrl]	Aβtotal (% vs Ctrl)_Mean [4] [% vs Ctrl]
Cc1cc(CC2CCN(c3nc(Nc4cc(C(F)(F)F)ccc4F)n(C)n3)CC2)ccn1 [Compound 11, N-[2-fluoro-5-(trifluoromethyl)phenyl]-1-methyl-3-[4-[(2-methyl-4-pyridinyl)methyl]-1-piperidinyl]-1H-1,2,4-triazol-5-amine.HCl.H2O]	6920	> 10000	–	–	–
COc1ccc(N2CCN(c3nc(Nc4cc(F)cc(C(F)(F)F)c4)n(C)n3)CC2(C)C)cc1 [Compound 5, N-[3-fluoro-5-(trifluoromethyl)phenyl]-3-[4-(4-methoxyphenyl)-3,3-dimethyl-1-piperazinyl]-1-methyl-1H-1,2,4-triazol-5-amine.0.8HCl]	140	> 10000	–	–	–
Cn1nc(N2CCC(Oc3ccncc3)CC2)nc1Nc1cc(C(F)(F)F)ccc1F [Compound 7, N-[2-fluoro-5-(trifluoromethyl)phenyl]-1-methyl-3-[4-(4-pyridinyloxy)-1-piperidinyl]-1H-1,2,4-triazol-5-amine]	720	> 10000	–	–	–
Cc1cc(OC2CCN(c3nc(Nc4cc(C(F)(F)F)ccc4F)n(C)n3)CC2)ncn1 [Compound 8, N-[2-fluoro-5-(trifluoromethyl)phenyl]-1-methyl-3-[4-[(6-methyl-4-pyrimidinyl)oxy]-1-piperidinyl]-1H-1,2,4-triazol-5-amine]	950	> 10000	158	–	–
Cn1nc(N2CCN(Cc3ccncc3)CC2)nc1Nc1cc(C(F)(F)F)ccc1F [Compound 12, N-[2-fluoro-5-(trifluoromethyl)phenyl]-1-methyl-3-[4-(4-pyridinylmethyl)-1-piperazinyl]-1H-1,2,4-triazol-5-amine]	> 10000	> 10000	161.4	–	–
Cc1cc(OC2CCN(c3nc(Nc4cc(C(F)(F)F)ccc4F)n(C)n3)CC2)ccn1 [Compound 15, N-[2-fluoro-5-(trifluoromethyl)phenyl]-1-methyl-3-[4-[(2-methyl-4-pyridinyl)oxy]-1-piperidinyl]-1H-1,2,4-triazol-5-amine]	250	> 10000	177.4	–	–
Cn1nc(N2CCN(c3ccncc3)CC2)nc1Nc1cc(C(F)(F)F)ccc1F [Compound 10, N-[2-fluoro-5-(trifluoromethyl)phenyl]-1-methyl-3-[4-(4-pyridinyl)-1-piperazinyl]-1H-1,2,4-triazol-5-amine]	4900	> 10000	261.8	–	–

More lines, main results first:

IC50 [1] [nM]	IC50 [2] [nM]	melting point [°C]	SMILES	Aβ42 (% vs Ctrl)_Mean [3] [% vs Ctrl]	Aβtotal (% vs Ctrl)_Mean [4] [% vs Ctrl]
4070	> 10000	191.6	COc1ccc(N2CCN(c3nc(-c4ccc(F)cc4)n(C)n3)CC2)cc1 [Compound 16, 1-[5-(4-fluorophenyl)-1-methyl-1H-1,2,4-triazol-3-yl]-4-(4-methoxyphenyl)-piperazine]	–	–
110	> 10000	–	COc1ccc(N2CCN(c3nc(Nc4cc(C(F)(F)F)ccc4F)n(C)n3)CC2(C)C)cc1 [Compound 14, N-[2-fluoro-5-(trifluoromethyl)phenyl]-3-[4-(4-methoxyphenyl)-3,3-dimethyl-1-piperazinyl]-1-methyl-1H-1,2,4-triazol-5-amine]	78	111
50	> 10000	–	COc1ccc(N2CCN(c3nc(Nc4ccc(F)cc4C)n(C)n3)CC2(C)C)cc1 [Compound 6, N-(4-fluoro-2-methylphenyl)-3-[4-(4-methoxyphenyl)-3,3-dimethyl-1-piperazinyl]-1-methyl-1H-1,2,4-triazol-5-amine.1.2HCl. 1.5H2O]	45	109
70	> 10000	–	COc1ccc(N2CCN(c3nc(Nc4cccc(OC(F)(F)F)c4)n(C)n3)CC2(C)C)cc1 [Compound 4, 3-[4-(4-methoxyphenyl)-3,3-dimethyl-1-piperazinyl]-1-methyl-N-[3-(trifluoromethoxy)phenyl]-1H-1,2,4-triazol-5-amine.HCl]	–	–
50	> 10000	–	COc1ccc(N2CCN(c3nc(Nc4cccc(F)c4C(F)(F)F)n(C)n3)CC2(C)C)cc1 [Compound 3, N-[3-fluoro-2-(trifluoromethyl)phenyl]-3-[4-(4-methoxyphenyl)-3,3-dimethyl-1-piperazinyl]-1-methyl-1H-1,2,4-triazol-5-amine]	–	–
560	> 10000	145.4	COc1ccc(N2CCN(c3nc(Nc4cc(C(F)(F)F)ccc4F)n(C)n3)CC2)cc1 [Compound 9, N-[2-fluoro-5-(trifluoromethyl)phenyl]-3-[4-(4-methoxyphenyl)-1-piperazinyl]-1-methyl-1H-1,2,4-triazol-5-amine]	–	–
90	> 10000	–	COc1ccc(N2CCN(c3nc(Nc4ccccc4C(F)(F)F)n(C)n3)CC2(C)C)cc1 [Compound 2, 3-[4-(4-methoxyphenyl)-3,3-dimethyl-1-piperazinyl]-1-methyl-N-[2-(trifluoromethyl)phenyl]-1H-1,2,4-triazol-5-amine]	–	–
50	> 10000	156.8	COc1ccc(N2CCN(c3nc(Nc4ccccc4C)n(C)n3)CC2(C)C)cc1 [Compound 1, 3-[4-(4-methoxyphenyl)-3,3-dimethyl-1-piperazinyl]-1-methyl-N-(2-methylphenyl)-1H-1,2,4-triazol-5-amine]	50	107
